Results from PMC10317891, “Fibroblast activation protein targeted radiotherapy induces an immunogenic tumor microenvironment and enhances the efficacy of PD-1 immune checkpoint inhibition” (European Journal of Nuclear Medicine and Molecular Imaging, 2023).
Several values for one entry are separate records, joined by “and”; a condition that tells them apart may be missing. Identical values can stand only once. Like-named read-outs stand apart in the source and are kept apart here. Numbered stars: 1 amine (or outer) side, 2 acyl side, 3 side chain; on linkers, the order of the positions; unused ones are H or OH. Bridge positions count the residues as written; N and C are the ends. Peptide text beside a SMILES is read from it. * marks the point of attachment. X1 = O=C(O)CN1CCN(CC(=O)O)CCN(CC(=O)N2CCN(Cc3cc(C[*:1])cc(C[*:2])c3)CC2)CCN(CC(=O)O)CC1; Hexanoyl = CCCCCC(=O)*

How the values were obtained:
[1] = In vivo biodistribution by SPECT/CT imaging; design: species or system C57BL/6 mice; details: female, C57BL/6, mouse, total radioactivity; for tissue uptake at 3 h / tissue uptake at 24 h / tissue uptake at 48 h / tissue uptake at 72 h: mean ± SD, n = 6, SD
Protocol: All animal experiments were carried out under licenses approved by the respective authorities and in compliance with guidelines on animal welfare. […] Animals were anesthetized (isoflurane 3% in 100% O2) and eye lubricants were applied before each scan. Study was performed at Minerva Imaging ApS (Denmark).
Imaging and image analysis were performed as described. During the scan, mice were kept under isoflurane anesthesia, and body temperature was maintained under warm air. The following acquisition parameters were used for the respective imaging modality.
For quantification, VivoQuant (InviCRO) was used to draw regions of interest (ROIs) in relevant tissues, with a ROI drawn over the left ventricle of the heart to serve as blood pool surrogate. Percentage injected dose per gram of tissue (%ID/g) was calculated from the tissue-associated radioactivity determined in the ROI, the volume of the ROI, and the decay-corrected dose entered during preprocessing of the images in VivoQuant.

[2] = tested on: MCA205-mFAP syngeneic tumor model; assay: Tumor in vivo efficacy study
Protocol: Female C57BL/6 mice were subcutaneously implanted with 1 × 10^6 MCA205-mFAP cells (n = 12 per group). […] Treatment began when the MTV was 94 mm^3 (mean body weight 20.4 g).
Calculation of tumor growth inhibition (TGI). Percent TGI is defined as the difference between the mean tumor volume of the test group and the control group. TGI values are calculated as follows:
Tᵢ is the mean tumor volume of a treatment group on a given day i, T₀ is the mean tumor volume of the treatment group on the day treatment started (day 0), Vᵢ is the mean tumor volume of the vehicle control group on the same day as Tᵢ, and V₀ is the mean tumor volume of the vehicle group on the initial day of treatment (day 0).
Calculation of body weight loss. Relative body weight (RBW) was calculated as follows:
BWᵢ is the mean body weight of one group on a given day i, BW0 is the mean body weight of the same group on the day treatment started (day 0).
Statistical analysis. For the evaluation of the statistical significance of antitumor efficacy, body weight change, and immune profiling, two-way ANOVA with multiple comparisons was performed using GraphPad Prism (Version 8.4).
All P values <0.05 were considered statistically significant.

[3] = tested on: immune infiltrates of MCA205-mFAP tumors; assay: Ex vivo immune profiling of tumors by flow cytometry; details: for CD8^+ (%, CD45^+) / CD86^+ on TAM (MFI) / CD127^+CD8^+ (%, CD8^+) / CD127 on CD127^+CD8^+ (MFI) / T cells (%, CD45^+) / TAM (%, CD45^+) / CD45^+ (%, total): mean ± SEM; for CD8^+ (%, CD45^+) / CD86^+ on TAM (MFI) / CD127^+CD8^+ (%, CD8^+) / CD127 on CD127^+CD8^+ (MFI) / T cells (%, CD45^+) / TAM (%, CD45^+) / CD4+ (%, CD45+) / CD25+CD4+ (%, CD4+) / CD25+CD8+ (%, CD8+) / CD25 on CD4+ (MFI) / CD25 on CD25+CD8+ (MFI) / CD86+ TAMs (%, TAMs) / CD127+CD4+ (%, CD4+) / CD127 on CD4+ (MFI) / CD45^+ (%, total): n = 8 per group; for CD45^+ (%, total): tumor flow cytometry;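 as to all read-outs here: subcutaneous MCA205-mFAP tumors in female C57BL/6 mice, treated from a mean tumor volume of 162 mm^3, excised on day 8 or 13 pi and profiled by flow cytometry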
Protocol: (§1) Female C57BL/6 mice were subcutaneously implanted with 1 × 10^6 MCA205-mFAP cells (n = 12 per group). […] Treatment began when the MTV was 94 mm^3 (mean body weight 20.4 g). […] Treatment began when MTV was 162 mm^3 (mean body weight 20.8 g) and tumors were collected at days 8 and 13 pi for analysis.
Tumors were dissected into small pieces, digested using a tumor dissociation enzyme mix (Miltenyi Biotec) at 37 °C for 40 min in a shaking water bath, processed through 70 μM cell strainers and counted (NucleoCounter NC-202, Chemotec). Cells (10 × 10^6) were Fc-blocked (2.4G2, BD Biosciences) and stained in FACS buffer (PBS with 0.5% BSA, 0.1% NaN3 and 2 mM EDTA) with Brilliant Stain Buffer Plus (BD Biosciences) for surface markers CD45 (30-F11), CD3 (145-2C11), CD4 (RM4-5), CD8 (53–6.7), CD25 (PC61), CD127 (SB/199), Ly6g (1A8), Ly6c (HK1.4), CD11b (M1/70), CD86 (GL1), CD314 (CX5), F4/80 (T45-2342), and eFlour 780 fixable viability dye (Thermo Fisher Scientific) for 30 min on ice. Anti-Ly6c was purchased from Biolegend, while remaining antibodies were from BD Biosciences. Samples were washed and acquired on the FACSymphony A3 and analyzed in FlowJo v10.8.1 (BD Biosciences, Supplementary Fig. S1).
PMN-MDSC CD45+ CD11b+ Ly6c+ Ly6g+
Mo-MDSC CD45+ CD11b+ Ly6c HighLy6g-
Gating strategy for immune profiling of MCA205-mFAP tumors by flow
cytometry. Representative bivariate density plots show gating strategy to identify the PMN-MDSC, Mo-
MDSC, TAM and T-cells in the MCA205-mFAP tumors (A). Marker sets used to identify each immune
cell type are listed (B).

[4] = tested on: MCA205-mFAP tumors; assay: Tumor mass in pharmacodynamic study; assay type: in vivo, C57BL/6 mice; details: day 13 pi; n = 8 per group; vehicle 1433 mg
Excerpt: as §1

[5] = tested on: immune gene expression in MCA205-mFAP tumors; assay: Tumor RNA expression analysis (nCounter PanCancer Immune Profiling panel); assay type: in vivo, C57BL/6 mice
Excerpt: Total RNA was isolated from tumors using the PureLink RNA Mini kit (Thermo Fisher Scientific) following the manufacturer’s protocol. The nCounter PanCancer Immune Profiling (mouse) panel (NanoString Technologies) was used to measure the expression in the RNA samples. Following hybridization, transcripts were quantitated and analyzed using the nCounter Digital Analyzer and nCounter Advanced Analysis Software v4.0 (NanoString Technologies). Data were normalized for assay efficiency by multiplying each count by a positive normalization factor obtained for each sample. For differential expression analysis, the Benjamini-Yekutieli statistical analysis, which calculates false discovery rate, was employed to generate an adjusted p-value.

[6] = tested on: T cell infiltrates of MCA205-mFAP tumors; assay: IHC quantification of CD8+ and CD4+ T cells in tumors
Protocol: Tumors were formalin-fixed and paraffin-embedded and processed into 4 μm tissue sections. Tumor sections were stained for FAP (EPR20021, Abcam), CD8 (D4W2Z, Cell Signaling), and CD4 (EPR19514, Abcam) on a Bond Rx autostainer (Leica Biosystems) with Bond Polymer Refine Detection (Leica Biosystems) according to the manufacturer's protocol. After staining, sections were dehydrated and film cover slipped using a TissueTek-Prisma and Coverslipper (Sakura). Whole slide scanning (40x) was performed on an Aperio AT2 (Leica Biosystems). Image analysis and quantification was performed on Aperio ImageScope v12.1 (Leica Biosystems) or QuPath v0.1.2 [18].
A tissue slide containing both intrinsic positive staining structures was included in every staining run. For FAP H-score assessment, the staining intensity was scored as 0, 1, 2, or 3 corresponding to the presence of negative, weak, intermediate, and strong brown staining, respectively. The average percentage positive was calculated for each intensity category and the following calculation was applied: H-score = (% of cells stained at intensity category 1 x 1) + (% of cells stained at intensity category 2 x 2) + (% of cells stained at intensity category 3 x 3). Image analysis scoring was previously validated against scoring performed by a pathologist. For CD4 and CD8 percentage assessment, QuPath positive cell detection function was used.

[7] = day 8 pi, differential expression versus vehicle, 770-plex panel

## CCCCCC(=O)N[C@H]1CSCc2cc(cc(CN3CCN(C(=O)CN4CCN(CC(=O)O)CCN(CC(=O)O)CCN(CC(=O)O)CC4)CC3)c2)CSC[C@@H](C(=O)N[C@@H](CC(=O)O)C(N)=O)NC(=O)[C@H](Cc2ccccc2)NC(=O)[C@H](CCC(N)=O)NC(=O)[C@H]([C@@H](C)O)NC(=O)[C@@H]2CCCN2C(=O)[C@@H]2CCCN2C1=O [^177Lu-FAP-2287, metal not drawn] (Hexanoyl-CPPTQFCD-NH2; linker 1-7 via X1; N-terminus and C-terminus assumed)
[1]; blood pool surrogate (left ventricle of the heart), iv, 30 MBq, 3 h p.i., ROI over left ventricle of the heart, read-out: Blood Pool Surrogate %ID/g
  tissue uptake at 3 h: 0.5 %ID/g
[1]; blood pool surrogate (left ventricle of the heart), iv, 30 MBq, 24 h p.i., ROI over left ventricle of the heart, read-out: Blood Pool Surrogate %ID/g
  tissue uptake at 24 h: 0.1 %ID/g
[1]; blood pool surrogate (left ventricle of the heart), iv, 30 MBq, 48 h p.i., ROI over left ventricle of the heart, read-out: Blood Pool Surrogate %ID/g
  tissue uptake at 48 h: 0.1 %ID/g
[1]; blood pool surrogate (left ventricle of the heart), iv, 30 MBq, 72 h p.i., ROI over left ventricle of the heart, read-out: Blood Pool Surrogate %ID/g
  tissue uptake at 72 h: 0.1 %ID/g
[1]; kidney, 3 h p.i., 30 MBq iv, read-out: Kidney %ID/g
  tissue uptake at 3 h: 2 ± 0.1 %ID/g
[1]; kidney, 24 h p.i., 30 MBq iv, read-out: Kidney %ID/g
  tissue uptake at 24 h: 1.1 ± 0.1 %ID/g
[1]; kidney, 48 h p.i., 30 MBq iv, read-out: Kidney %ID/g
  tissue uptake at 48 h: 0.9 %ID/g
[1]; kidney, 72 h p.i., 30 MBq iv, read-out: Kidney %ID/g
  tissue uptake at 72 h: 0.6 ± 0.1 %ID/g
[1]; liver, 3 h p.i., 30 MBq iv, read-out: Liver %ID/g
  tissue uptake at 3 h: 0.5 %ID/g
[1]; liver, 24 h p.i., 30 MBq iv, read-out: Liver %ID/g
  tissue uptake at 24 h: 0.3 %ID/g
[1]; liver, 48 h p.i., 30 MBq iv, read-out: Liver %ID/g
  tissue uptake at 48 h: 0.3 %ID/g
[1]; liver, 72 h p.i., 30 MBq iv, read-out: Liver %ID/g
  tissue uptake at 72 h: 0.2 %ID/g
[1]; tumor, 3 h p.i., 30 MBq (1 nmol) iv, SPECT/CT, read-out: Tumor %ID/g
  tissue uptake at 3 h: 8.2 ± 0.5 %ID/g
[1]; tumor, 24 h p.i., 30 MBq (1 nmol) iv, SPECT/CT, read-out: Tumor %ID/g
  tissue uptake at 24 h: 2.9 ± 0.2 %ID/g
[1]; tumor, 48 h p.i., 30 MBq (1 nmol) iv, SPECT/CT, read-out: Tumor %ID/g
  tissue uptake at 48 h: 1.6 ± 0.1 %ID/g
[1]; tumor, 72 h p.i., 30 MBq (1 nmol) iv, SPECT/CT, read-out: Tumor %ID/g
  tissue uptake at 72 h: 0.9 ± 0.1 %ID/g
[1]; tumor/kidney, iv, 30 MBq, 3 h p.i., read-out: T/K ratio (tumor-to-kidney)
  tissue to tissue ratio at 3 h: 4.1
[1]; tumor/kidney, iv, 30 MBq, 24 h p.i., read-out: T/K ratio (tumor-to-kidney)
  tissue to tissue ratio at 24 h: 2.6
[1]; tumor/kidney, iv, 30 MBq, 48 h p.i., read-out: T/K ratio (tumor-to-kidney)
  tissue to tissue ratio at 48 h: 1.8
[1]; tumor/kidney, iv, 30 MBq, 72 h p.i., read-out: T/K ratio (tumor-to-kidney)
  tissue to tissue ratio at 72 h: 1.5
[2]; day 10 pi, versus vehicle, n = 12 per group
  TGI, Day 10: 74%
[2]; day 10 pi, 60 MBq 177Lu-FAP-2287 single iv dose and/or 10 mg/kg anti-PD-1 ip twice weekly, mean ± SEM, n = 12, vehicle 749.6 ± 91.2, SEM
  MTV, Day 10: 266.5 ± 53.2 mm^3
[2]; relative body weight change at nadir (Day 2), mean ± SEM, n = 12, SEM
  RBW at nadir: -1.1 ± 0.7%
[3]; Day 8 pi, SEM
  CD8^+ (%, CD45^+): 16.9 ± 3.2%
  CD86^+ on TAM (MFI): 3928 ± 124 MFI
  CD127^+CD8^+ (%, CD8^+): 50.0 ± 5.3%
  CD127 on CD127^+CD8^+ (MFI): 1011 ± 118 MFI
  T cells (%, CD45^+): 22.9 ± 3.6%
  TAM (%, CD45^+): 23.0 ± 1.1%
  CD45^+ (%, total): 23.6 ± 3.1%
[3]; Day 8 pi
  CD4+ (%, CD45+): 6.0 ± 0.6%
  CD25+CD4+ (%, CD4+): 60.4 ± 1.3%
  CD25+CD8+ (%, CD8+): 7.7 ± 1.1%
  CD25 on CD4+ (MFI): 931 ± 117 MFI
  CD25 on CD25+CD8+ (MFI): 84 ± 6 MFI
  CD86+ TAMs (%, TAMs): 89.5 ± 1.7%
  CD127+CD4+ (%, CD4+): 41.0 ± 1.8%
  CD127 on CD4+ (MFI): 777 ± 43 MFI
[3]; Day 13 pi, SEM
  CD8^+ (%, CD45^+): 11.9 ± 1.5%
  CD86^+ on TAM (MFI): 4063 ± 143 MFI
  CD127^+CD8^+ (%, CD8^+): 44.5 ± 3.7%
  CD127 on CD127^+CD8^+ (MFI): 874 ± 86 MFI
  T cells (%, CD45^+): 19.0 ± 1.5%
  TAM (%, CD45^+): 39.4 ± 1.4%
  CD45^+ (%, total): 21.6 ± 1.4%
[3]; Day 13 pi
  CD4+ (%, CD45+): 7.2 ± 0.4%
  CD25+CD4+ (%, CD4+): 64.5 ± 1.2%
  CD25+CD8+ (%, CD8+): 5.3 ± 0.6%
  CD25 on CD4+ (MFI): 1182 ± 80 MFI
  CD25 on CD25+CD8+ (MFI): 70 ± 4 MFI
  CD86+ TAMs (%, TAMs): 92.0 ± 1.2%
  CD127+CD4+ (%, CD4+): 38.9 ± 2.2%
  CD127 on CD4+ (MFI): 736 ± 51 MFI
[3]; mouse, in vivo
  CD86+ Mo-MDSCs (%, Mo-MDSCs): 84.9 ± 1.2% and 82.2 ± 2.9%
  PMN-MDSCs (%, CD45+): 9.6 ± 3.9% and 10.0 ± 1.3%
[3]; mouse, in vivo, SEM
  CD86^+ on Mo-MDSC (MFI): 3267 ± 80 MFI and 2939 ± 114 MFI
  Mo-MDSC (%, CD45^+): 34.9 ± 0.9% and 21.3 ± 1.3%
[4]
  Tumor mass: 746 mg
[5]; [7]
  number of gene transcripts decreased: 15 genes
  number of genes with significantly increased RNA levels: 28 genes
[5]; day 13 pi
  number of day 8 differentially expressed genes still differentially expressed at day 13 pi: 16 genes
[5]; fold versus vehicle, day not given
  CCL5 RNA increase in tumors: 1.95 fold
[6]; day 8 pi, vehicle 4.9%
  CD8^+ T cells by IHC (% of total cells): 9.0%
[6]; day 13, vehicle 4.4%
  CD8^+ T cells by IHC (% of total cells): 8.5%
